Literature values in patent publication US20050142194A1, “Composition comprising CS” (ALTERGON S.A., priority 2003, published 2005).

Key:
[1] = tested on: pepsin; conditions: prior art statement, middle of the twentieth century
[2] = general statement of the prior art part

| Substance | action on the proteolytic activity of pepsin [1] | solubility in water [2] |
| --- | --- | --- |
| chondroitin sulfate | clear inhibitory action | poorly soluble in water |
| sodium chondroitin sulfate | – | poorly soluble in water |
